This is an account of results in patent US4351836A, “1,2,3,4,4a,5,10,10a-Octahydro-5,10-ortho-benzenobenz[g]isoquinolines and antidepressant use thereof” (E. I. Du Pont de Nemours and Company, priority 1980, dated 1982).

Data set [1] relates to tetrabenazine-induced sedation and depression in mice. The data set is described as follows: Antagonism of tetrabenazine-induced depression in mice, orally. It is filed as in vivo, female white mice (Carworth CF1 S). Conditions: oral, 1 hr post drug, 30 minutes after tetrabenazine 32 mg/kg intraperitoneally, female mice; for ED50: Mus musculus, read-out: ED50 for prevention of ptosis. How it is done:
Relief from ptosis was recorded when exactly two seconds after placing the mouse facing the observer, lid closure was less than 50% in both eyes.

The test system is the same in data set [2]. Described as above. Format: in vivo, female white mice (Carworth CF1 S). Conditions: oral, 1 hr post drug, 30 minutes after tetrabenazine 32 mg/kg intraperitoneally, female mice; for ED50: Mus musculus, read-out: ED50 for prevention of exploratory loss.
The conditions of data set [3]: background statement, no test described; cited from earlier work.

Counter-ions that a name gives are not always drawn. Like-named read-outs stand apart in the source and are kept apart here.

One may read the ED50 as the midpoint of the dose-response relation. For the molecule `CCOC(=O)CCN1CCC2C3c4ccccc4C(c4ccccc43)C2C1` (racemic) [(±)1,2,3,4,4a,5,10,10a-octahydro-5,10-o-benzenobenz[g]isoquinoline-2-propionic acid ethyl ester], the ED50 is 8.1 mg/kg in data set [1] and 20 mg/kg in data set [2].
In the case of “(±)7-(or: -8-)-chloro-1,2,3,4,4a,5,10,10a-octahydro-5,10-o-benzenobenz[g]isoquinoline hydrochloride [R=H, R1=H, R2=H, R3=7 or 8-Cl, R4=H]”, the “ED50 for prevention of ptosis” value in data set [1] came to 1.4 mg/kg. Besides, the “ED50 for prevention of exploratory loss” value in data set [2] is 1.7 mg/kg.
Take “(±)7-(or: -8-)-fluoro-1,2,3,4,4a,5,10,10a-octahydro-5,10-o-benzenobenz[g]isoquinoline hydrochloride [R=H, R1=H, R2=H, R3=7 or 8-F, R4=H]”: in data set [1], the “ED50 for prevention of ptosis” value is reported as “.58 mg/kg”. The “ED50 for prevention of exploratory loss” value in data set [2] is listed as 1.7 mg/kg.
As for `CCCCN1CCC2C3c4ccccc4C(c4ccccc43)C2C1` (racemic) [(±)2-(1-butyl)-1,2,3,4,4a,5,10,10a-Octahydro-5,10-o-benzenobenz[g]isoquinoline Maleate], the ED50 in data set [1] is 11.2 mg/kg; in data set [2], 19 mg/kg.
Regarding “(±)6,10-dichloro-1,2,3,4,4a,5,10,10a-octahydro-2-methyl-5,10-o-benzenobenz[g]isoquinoline hydrochloride [R=CH3, R1=H, R2=H, R3=6-Cl, R4=10-Cl]”, the “ED50 for prevention of ptosis” value in data set [1] stood at 12.2 mg/kg. Also, in data set [2], the “ED50 for prevention of exploratory loss” value stood at 22 mg/kg.
On to “(±)6-(or: -9-)chloro-1,2,3,4,4a,10,10a-octahydro-5,10-o-benzenobenz[g]isoquinoline hydrochloride [R=H, R1=H, R2=H, R3=6 or 9-Cl, R4=H]”, for which, in data set [1], the “ED50 for prevention of ptosis” value amounted to 2.2 mg/kg. Besides, the “ED50 for prevention of exploratory loss” value in data set [2] was determined as 2.5 mg/kg.
In the case of `CN(C)CCCN1c2ccccc2CCc2ccccc21` [Imipramine], in data set [3], the side effects result was “may cause blurred vision, dryness of mouth, constipation, urinary retention, orthostatic hypotension, respiration depression, myocardial infarction and congestive heart failure”.
Turning to “(±)7-(or: -8-)fluoro-1,2,3,4,4a,5,10,10a-octahydro-2-methyl-5,10-o-benzenobenz[g]isoquinoline hydrochloride [R=CH3, R1=H, R2=H, R3=7 or 8-F, R4=H]”, the “ED50 for prevention of ptosis” value in data set [1] was 2.0 mg/kg. The “ED50 for prevention of exploratory loss” value in data set [2] turned out to be 2.7 mg/kg.
For “(±)6-(or: -9-)-chloro-1,2,3,4,4a,5,10,10a-octahydro-2-methyl-5,10-o-benzenobenz[g]isoquinoline hydrochloride [R=CH3, R1=H, R2=H, R3=6 or 9-Cl, R4=H]”, the “ED50 for prevention of ptosis” value in data set [1] is listed as 1.3 mg/kg. Moreover, the “ED50 for prevention of exploratory loss” value in data set [2] worked out at 1.4 mg/kg.
Turning to `CN(C)CCC=C1c2ccccc2CCc2ccccc21` [Amitriptyline, reference compound], the figures for the ED50 in data set [1] and in data set [2] were 1 mg/kg and 1.2 mg/kg, respectively.
The like results for `CC(O)CCN1CCC2C3c4ccccc4C(c4ccccc43)C2C1` (centres unmarked) were, in that order, 4.9 mg/kg and 5.6 mg/kg.
For “(±)1,2,3,4,4a,-5,10,10a-octahydro-2,5-dimethyl-5,10-o-benzenobenz[g]isoquinoline or (±)1,2,3,4,4a,5,10,10a-octahydro-2,10-dimethyl-5,10-o-benzenobenz[g]isoquinoline [R=CH3, R1=CH3 (H), R2=H(CH3), R3=H, R4=H]”, the “ED50 for prevention of ptosis” value in data set [1] turned out to be 21 mg/kg. Also, the “ED50 for prevention of exploratory loss” value in data set [2] is listed as 27 mg/kg.
As to `c1ccc(OCCN2CCC3C4c5ccccc5C(c5ccccc54)C3C2)cc1` (centres unmarked), the ED50 in data set [1] stood at 10.8 mg/kg; in data set [2], 27 mg/kg.
Turning to “(±)7-(or: -8-)chloro-1,2,3,4,4a,5,10,10a-octahydro-2-methyl-5,10-o-benzenobenz[g]isoquinoline hydrochloride hemihydrate [R=CH3, R1=H, R2=H, R3=7 or 8-Cl, R4=H]”, the “ED50 for prevention of ptosis” value in data set [1] was 3.4 mg/kg. In addition, the “ED50 for prevention of exploratory loss” value in data set [2] worked out at 4.5 mg/kg.
For `c1ccc(C(CN2CCC3C4c5ccccc5C(c5ccccc54)C3C2)c2ccccc2)cc1` (racemic) [R=CH2 CH(C6 H5)2, R1=H, R2=H, R3=H, R4=H, (±)1,2,3,4,4a,5,10,10a-octahydro-2-(2,2-diphenylethyl)-5,10-o-benzenobenz[g]isoquinoline hydrochloride], the ED50 came out at 12 mg/kg in data set [1] and 47 mg/kg in data set [2].
As to `CCOC(=O)N1CCC2C3c4ccccc4C(c4ccccc43)C2C1` (racemic) [R=COOC2 H5, R1=H, R2=H, R3=H, R4=H, (±)1,2,3,4,4a,5,10,10a-Octahydro-5,10-o-benzenobenz[g]isoquinoline-2-carboxylic Acid, Ethyl Ester], the ED50 in data set [1] worked out at 2.1 mg/kg; in data set [2], 5.4 mg/kg.
As to `CN1CCC2C3c4ccccc4C(c4ccccc43)C2C1` (racemic) [R=CH3, R1=H, R2=H, R3=H, R4=H, (±)1,2,3,4,4a,5,10,10a-Octrahydro-2-methyl-5,10-o-benzenobenz[g]isoquinoline Hydrochloride], the ED50 in data set [1] came to 1 mg/kg; in data set [2], 6 mg/kg.
On to “(±)1,2,3,4,4a,5,10,10a-octahydro-5-(or: -10)-methyl-5,10-o-benzobenz[g]isoquinoline hydrochloride [R=H, R1=CH3 (H), R2=H(CH3), R3=H, R4=H]”, for which the “ED50 for prevention of ptosis” value in data set [1] was determined as 22 mg/kg. In addition, the “ED50 for prevention of exploratory loss” value in data set [2] worked out at 38 mg/kg.
Take `c1ccc(CCN2CCC3C4c5ccccc5C(c5ccccc54)C3C2)cc1` (racemic) [R=CH2 CH2 C6 H5, R1=H, R2=H, R3=H, R4=H, (±)1,2,3,4,4a,5,10,10a-octahydro-2-phenethyl-5,10-o-benzenobenz[g]isoquinoline, hydrochloride hemihydrate]: the ED50 in data set [1] was found to be 11.8 mg/kg; in data set [2] it was 13.6 mg/kg.
For the molecule “(±)2-(1-adamantylmethyl)-1,2,3,4,4a,5,10,10a-octahydro-5,10-o-benzenobenz[g]isoquinoline, hydrochloride hemihydrate [R=1-adamantyl, R1=H, R2=H, R3=H, R4=H]”, in data set [1], the “ED50 for prevention of ptosis” value is 24 mg/kg. Moreover, the “ED50 for prevention of exploratory loss” value in data set [2] amounted to 41 mg/kg.
In the case of `CC(=O)CCN1CCC2C3c4ccccc4C(c4ccccc43)C2C1` (racemic) [R=CH2 CH2 COCH3, R1=H, R2=H, R3=H, R4=H, (±)4-(1,2,3,4,4a,5,10,10a-Octahydro-5,10-o-benzenobenz[g]isoquinoline-2-yl)-2-butanone Maleate], the ED50 in data set [1] amounted to 2.1 mg/kg; in data set [2], 4.4 mg/kg.
On to `c1ccc2c(c1)C1c3ccccc3C2C2CNCCC12` (racemic) [R=H, R1=H, R2=H, R3=H, R4=H, (±)1,2,3,4,4a,5,10,10a-Octahydro-5,10-o-benzenobenz[g]isoquinoline Hydrochloride], for which the ED50 in data set [1] was 0.41 mg/kg; in data set [2] it was 1.5 mg/kg.
As to “(±)1,2,3,4,4a,5,10,10a-octahydro-7-(or: -8-)methyl-5,10-o-benzenobenz[g]isoquinoline hydrochloride [R=H, R1=H, R2=H, R3=7 or 8-CH3, R4=H]”, the “ED50 for prevention of ptosis” value in data set [1] is recorded as “.94 mg/kg”. Also, the “ED50 for prevention of exploratory loss” value in data set [2] is 4.8 mg/kg.
Consider `O=C(O)CCN1CCC2C3c4ccccc4C(c4ccccc43)C2C1` (racemic) [R=CH2 CH2 COOH, R1=H, R2=H, R3=H, R4=H, (±)1,2,3,4,4a,5,10,10a-Octahydro-5,10-o-benzenobenz[g]isoquinoline-2-propionic Acid Hydrochloride], for which the ED50 came out at 15 mg/kg in data set [1] and 27 mg/kg in data set [2].
